Common to all, as to assay: NCI tumour cell line growth inhibition, 48 h
In experiment [1] the test system is SK-MEL-2.
Experiment [2] relates to CAKI-1.
The test system of experiment [3] is UO-31.
For experiment [4], the system named is SK-MEL-5.
Experiment [5] relates to M14.
Experiment [6] deals with HCT-15.
For experiment [7], the system named is HL-60.
Experiment [8] has as its system NCI-H460.
For experiment [9], the system named is IGROV-1.
Experiment [10] deals with KM12.
In experiment [11] the test system is NCI-H226.
The subject of experiment [12] is NCI-H522.
Experiment [13] concerns OVCAR-3.
Experiment [14] deals with MOLT-4.
Experiment [15] deals with SNB-75.
For experiment [16], the system named is RXF 393.

The structures appear in SMILES notation.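 1) Cells in 96-well plates. 2) Compound, 48 h, 5 concentrations. 3) Linear interpolation between surrounding doses. 4) Unreached endpoint = highest concentration. At the GI50, growth is halved.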 Activity calls are given as the source filed them. No stated cut-off is given here; in the data, active = GI50 up to about 1.1 µM and inactive = higher.

Take `O=c1[nH]ccc2c1ccn2C1CC(O)C(CO)O1` (centres undefined): the GI50 in experiment [1] was > 100 µM (inactive); in experiment [2], > 100 µM (inactive); in experiment [3], > 100 µM (inactive); in experiment [4], > 100 µM (inactive); in experiment [5] it was > 100 µM (inactive); in [6] it was > 100 µM. Also, the GI50 in experiment [7], in experiment [8], in experiment [9], in [10], in [11] and in experiment [12] was > 100 µM (inactive) throughout. In addition, the GI50 is > 100 µM (inactive) in experiment [13], > 100 µM (inactive) in experiment [14] and 46.5 µM (inactive) in experiment [15].
`c1ccc2[nH]c(CNc3ccc(C4C[Se]N=N4)cc3)nc2c1` (centres undefined): the GI50 is 33 µM (inactive) in experiment [1]; > 100 µM (inactive) in experiment [2]; 38.9 µM (inactive) in experiment [3]; 15.1 µM (inactive) in [4]; 67.3 µM (inactive) in experiment [5]; > 100 µM (inactive) in [16]. Besides, the GI50 in experiment [6] is > 100 µM; in experiment [7] it was 28.2 µM (inactive); in experiment [8], 41.2 µM (inactive); in experiment [9], > 100 µM (inactive); in [10], 26.4 µM (inactive); in [12], 29 µM (inactive). The GI50 in experiment [13] is 21.7 µM (inactive); in experiment [14], 9.02 µM (inactive); in experiment [15], 43.2 µM (inactive).
Regarding `O=C(O)CC[C@H](NC(=O)c1ccc(-n2nc3ccc(=O)cc-3[nH]c2=O)cc1)C(=O)O`, the GI50 in experiment [1] is > 100 µM (inactive); in [3] it was > 100 µM (inactive); in experiment [4] it was > 100 µM (inactive); in experiment [5], > 100 µM (inactive); in [16] it was > 100 µM (inactive); in experiment [6], > 100 µM. Further, the GI50 in [7], in experiment [8], in experiment [9], in experiment [10], in [12] and in experiment [13] was > 100 µM (inactive) in each case. The GI50 in experiment [14] was > 100 µM (inactive).
As for `COc1ccc(/C(=N/NC(N)=O)C(c2ccc(OC)cc2)C2C(=O)Oc3ccccc32)cc1` (centres undefined), the GI50 in experiment [2] is > 100 µM (inactive); in experiment [3], 35 µM (inactive); in experiment [4], > 100 µM (inactive); in [5], > 100 µM (inactive); in experiment [16], 86.1 µM (inactive); in experiment [6], > 100 µM. Besides, the GI50 in [7], in experiment [8], in experiment [9], in experiment [10], in experiment [11] and in experiment [12] was > 100 µM (inactive) throughout. Besides, the GI50 in [13], in [14] and in [15] was > 100 µM (inactive) in each case.
With `CCOc1ccc(NC(=O)CC2Sc3ccccc3NC2=O)cc1` (centres undefined), the GI50 was 89.9 µM (inactive) in experiment [2]; 47.2 µM (inactive) in [3]; > 100 µM (inactive) in experiment [4]; > 100 µM (inactive) in experiment [5]; 56.8 µM in experiment [6]; > 100 µM (inactive) in [7]. The GI50 is 90.2 µM (inactive) in [8]; > 100 µM (inactive) in [9]; 28.3 µM (inactive) in experiment [10]; > 100 µM (inactive) in experiment [11]; > 100 µM (inactive) in experiment [12]; 42.3 µM (inactive) in experiment [13]. Also, the GI50 in experiment [14] was > 100 µM (inactive); in [15], 31.6 µM (inactive).
As for `COc1cccc(OC)c1/C=N\N1C(=O)c2ccccc2C1=O`, the GI50 in [1] was 60.8 µM (inactive); in [2], 38.5 µM (inactive); in [3] it was 55.2 µM (inactive); in experiment [4], 52.1 µM (inactive); in experiment [5] it was 19.7 µM (inactive); in experiment [16], 26.7 µM (inactive). Moreover, the GI50 in experiment [6] was 32.1 µM; in experiment [7], 33.9 µM (inactive); in experiment [8], 43.2 µM (inactive); in [9] it was 84.3 µM (inactive); in experiment [10], 36.6 µM (inactive); in experiment [11] it was > 100 µM (inactive). Besides, the GI50 in experiment [13] was 19.9 µM (inactive); in [14], 40.6 µM (inactive); in experiment [15], 38.5 µM (inactive).
Turning to `CSc1nc(NC2OC(COC(C)=O)C(OC(C)=O)C(OC(C)=O)C2OC(C)=O)c2c(n1)OCC2=O` (centres undefined), the GI50 in experiment [1] was > 100 µM (inactive); in experiment [2], > 100 µM (inactive); in [3], > 100 µM (inactive); in [4], > 100 µM (inactive); in experiment [5], > 100 µM (inactive); in experiment [6], > 100 µM. Moreover, the GI50 in experiment [7], in [8], in experiment [9], in experiment [10], in [11] and in experiment [12] was > 100 µM (inactive) in each case. Moreover, the GI50 in experiment [13], in experiment [14] and in experiment [15] was > 100 µM (inactive) each time.
Take `COc1ccc(N2C(=O)C3c4[nH]c5ccccc5c4C4CCC(C(C)(C)C)CC4C3C2=O)cc1OC` (centres undefined): the GI50 in [3] is 34.4 µM (inactive); in [4], 46.3 µM (inactive); in [5], 45.3 µM (inactive); in experiment [16], 14.8 µM (inactive); in experiment [6] it was 35 µM; in [7] it was 59.4 µM (inactive). Besides, the GI50 in experiment [9] was 33 µM (inactive); in experiment [11] it was 20 µM (inactive); in experiment [12] it was 15.4 µM (inactive); in experiment [14], 15.6 µM (inactive); in [15], 16.3 µM (inactive).
Consider `CCOC(=O)c1cc(/C=C/C(C)=C/C(=O)OC)oc1-c1ccccc1`, for which the GI50 is > 100 µM (inactive) in [1]; 55.8 µM (inactive) in experiment [2]; 35.4 µM (inactive) in experiment [3]; > 100 µM (inactive) in [4]; > 100 µM (inactive) in [5]; 58.9 µM in [6]. Also, the GI50 in [7] was 46.2 µM (inactive); in experiment [8], 65.3 µM (inactive); in [9] it was 66.7 µM (inactive); in experiment [10], 48.4 µM (inactive); in [11] it was > 100 µM (inactive); in experiment [12], 39.7 µM (inactive). Moreover, the figures for the GI50 in [13] and in [14] were 73.5 µM (inactive) and 38.6 µM (inactive), respectively.
On to `CCn1c2ccccc2c(=O)c2c(OC)ccc(OC)c21`, for which the GI50 in experiment [1] is 75.5 µM (inactive); in experiment [2] it was 22.9 µM (inactive); in experiment [3] it was 25.4 µM (inactive); in experiment [5] it was 79.8 µM (inactive); in experiment [16] it was 32.5 µM (inactive); in experiment [6], 45.9 µM. The GI50 was 29.6 µM (inactive) in experiment [7]; 47.6 µM (inactive) in [8]; 46.9 µM (inactive) in [9]; 79.6 µM (inactive) in [10]; 32.2 µM (inactive) in experiment [11]; 20.6 µM (inactive) in [12]. The GI50 was 34 µM (inactive) in experiment [13] and 42.5 µM (inactive) in experiment [14].
As to `COC(=O)/C(=C/CC(N=C(c1ccccc1)c1ccccc1)C(=O)OC)N=C(c1ccccc1)c1ccccc1` (centres undefined), the GI50 in [1] is > 100 µM (inactive); in experiment [2], > 100 µM (inactive); in experiment [3], 45.9 µM (inactive); in experiment [4], > 100 µM (inactive); in [5] it was > 100 µM (inactive); in experiment [16], 26.1 µM (inactive). Further, the GI50 is > 100 µM in experiment [6]; > 100 µM (inactive) in [7]; > 100 µM (inactive) in [8]; > 100 µM (inactive) in experiment [9]; > 100 µM (inactive) in experiment [10]; 38.5 µM (inactive) in experiment [12]. Further, the GI50 in experiment [13] was > 100 µM (inactive); in experiment [14], > 100 µM (inactive); in experiment [15] it was 12.4 µM (inactive).
Take `OC1(C23CC4CC(CC(C4)C2)C3)CSCC1(O)C12CC3CC(CC(C3)C1)C2` (centres undefined): the GI50 was > 100 µM (inactive) in experiment [1]; > 100 µM (inactive) in experiment [2]; > 100 µM (inactive) in [3]; > 100 µM (inactive) in experiment [4]; > 100 µM (inactive) in experiment [5]; > 10 µM (inactive) in experiment [7]. Moreover, the GI50 in experiment [9] is > 100 µM (inactive); in experiment [10], > 100 µM (inactive); in [11], > 100 µM (inactive); in experiment [12] it was > 100 µM (inactive); in [13] it was > 100 µM (inactive); in experiment [14], > 10 µM (inactive). The GI50 in experiment [15] is > 100 µM (inactive).
On to `CC1(C)CCC[C@@]2(C)C1CC[C@H]1CC(O)C3(C)CCC12C3` (some centres undefined), for which the GI50 in experiment [2] was 16.6 µM (inactive); in experiment [3] it was 17.5 µM (inactive); in experiment [4], 17.5 µM (inactive); in experiment [5], 17.1 µM (inactive); in [16], 13.3 µM (inactive); in experiment [6], 18.2 µM. Besides, the GI50 is 23.3 µM (inactive) in experiment [7]; 18.5 µM (inactive) in [8]; 22.2 µM (inactive) in experiment [9]; 17.5 µM (inactive) in [10]; 20 µM (inactive) in [11]; 16.6 µM (inactive) in [12]. Moreover, the GI50 in [13] is 16.7 µM (inactive); in experiment [14], 22 µM (inactive); in [15], 22.9 µM (inactive).
Turning to `Cc1ccc2[nH]c3c(C)c4c(c(C)c3c2c1)CN(C)C=C4`, the GI50 is 1.72 µM (inactive) in experiment [1]; 3.52 µM (inactive) in experiment [3]; 1.38 µM (inactive) in experiment [4]; 3.9 µM (inactive) in experiment [5]; 1.53 µM (inactive) in experiment [16]; 13.8 µM in experiment [6]. Moreover, the GI50 in experiment [7] is 4.46 µM (inactive); in experiment [8], 2.74 µM (inactive); in [9] it was 0.698 µM (active); in [10], 0.54 µM (active); in experiment [11], 0.353 µM (active); in experiment [12] it was 0.152 µM (active). The GI50 in experiment [13] is 2.75 µM (inactive); in experiment [14], 1.91 µM (inactive); in [15], 0.75 µM (active).

The values are drawn from ChEMBL document CHEMBL1201862, “PubChem BioAssay data set” (2004).
